Tests used:
aconitin arrhythmia = aconitin arrhythmia model on rats (time to ventricular extrasystole, tachycardia, fibrillation; ED125, ED150); format: in vivo, Wistar rats; details: for ED125 / ED150: Rattus norvegicus, iv, 95% confidence limits on the next line; for ED125: infusion time to extrasystol 7.6 (control 6.1 minutes), read-out: ED125 (delay of chamber extrasystol); for ED150: infusion time to extrasystol 9.2 (control 6.1 minutes), read-out: ED150 (delay of chamber extrasystol); for time to chamber extrasystol, aconitin infusion / time to chamber tachycardia, aconitin infusion / time to fibrillation, aconitin infusion: 5 minutes before aconitin infusion, X ± S.E.M.
Protocol: Wistar rats (200-220 g) are narcotized with urethane. The vena jugularis is connected with a polyethylene catheter. Using standard EKG-II leads, a control EKG is taken. The test substance and the physiological saline solution used as control are intravenously administered 5 minutes before the aconitin infusion. The aconitin solution is continuous administered at a dose of 5 mg/kg at a rate of 0.1 ml (100 g/minute) as an infusion into the vena jugularis. The progress is monitored by the EKG isoelectric line.
During the test the time to formation of the ventricular extrasystole, ventricular tachycardia and fibrillation were determined.
On the basis of the late occurrence of the ventricula extrasystole, ED125 and ED150 values were determined.

mice = experiment: acute toxicity on mice (LD50, Litchfield-Wilcoxon, after a week); format: in vivo; details: i.v., 95% confidence limits on the next line, 10080 min
Protocol: (§1) On the basis of the late occurrence of the ventricula extrasystole, ED125 and ED150 values were determined. The acute toxicities were determined on mice (CELP strain and the LD50 value was calculated after a week using the Litchfield-Wilcoxon method. The antiarrhythmically effective dosage or the LD50 value for several compounds of the various compound types are collected in Table III.

[1] = as above; format: in vivo; details: mouse, in vivo, iv, 95% confidence limits on the next line
Protocol: as §1

SMILES | ED125 (aconitin arrhythmia) | ED150 (aconitin arrhythmia) | LD50 (acute toxicity) (mice) | time to chamber extrasystol, aconitin infusion (aconitin arrhythmia; 0.5 mg/kg i.v.) | time to chamber tachycardia, aconitin infusion (aconitin arrhythmia; 0.5 mg/kg i.v.) | time to fibrillation, aconitin infusion (aconitin arrhythmia; 0.5 mg/kg i.v.) | time to chamber extrasystol, aconitin infusion (aconitin arrhythmia; 1.0 mg/kg i.v.) | time to chamber tachycardia, aconitin infusion (aconitin arrhythmia; 1.0 mg/kg i.v.) | time to fibrillation, aconitin infusion (aconitin arrhythmia; 1.0 mg/kg i.v.) | time to chamber extrasystol, aconitin infusion (aconitin arrhythmia; 2.0 mg/kg i.v.) | time to chamber tachycardia, aconitin infusion (aconitin arrhythmia; 2.0 mg/kg i.v.) | time to fibrillation, aconitin infusion (aconitin arrhythmia; 2.0 mg/kg i.v.) | time to chamber extrasystol, aconitin infusion (aconitin arrhythmia; 4.0 mg/kg i.v.) | time to chamber tachycardia, aconitin infusion (aconitin arrhythmia; 4.0 mg/kg i.v.) | time to fibrillation, aconitin infusion (aconitin arrhythmia; 4.0 mg/kg i.v.) | other results
CC1(C)C=C(C(=O)NC(c2ccccc2)c2ccccc2)C(C)(C)N1 [Compound 6] | 5.4 mg/kg | 23.1 mg/kg | 63 mg/kg | – | – | – | – | – | – | – | – | – | – | – | – | –
Cc1cccc(C)c1OCC(C)NC(=O)C1=CC(C)(C)NC1(C)C (stereo not shown) [Compound 9, 2-[N(2,2,5,5-tetramethyl-2,5-dihydro-3-pyrroline-3-carbonyl)]-3-(2,6-dimethyl-phenoxy)-aminopropane] | 0.6 mg/kg | 0.9 mg/kg | 11 mg/kg | 7.2 ± 0.06 min | 11.1 ± 0.68 min | 14.6 ± 0.48 min | 9.2 ± 0.10 min | 15.3 ± 0.29 min | 20.9 ± 0.50 min | 13.2 ± 1.21 min | 18.9 ± 0.13 min | 24.6 ± 0.79 min | – | – | – | –
Cc1cccc(C)c1OCC(C)NC(=O)C1CC(C)(C)NC1(C)C (stereo not shown) [Compound 11, 2-[N-(2,2,5,5-tetramethyl-3-pyrrolidine-3-carbonyl)]-3-(2,6-dimethyl-phenoxy)-amino propane] | 0.26 mg/kg | 0.39 mg/kg | – | 9.9 ± 0.40 min | 15.3 ± 0.52 min | 19.1 ± 0.89 min | 13.2 ± 1.29 min | 19.3 ± 1.24 min | 23.5 ± 0.42 min | – | – | – | – | – | – | time to chamber extrasystol, aconitin infusion (aconitin arrhythmia; 0.25 mg/kg i.v.): 7.6 ± 0.24 min; time to chamber tachycardia, aconitin infusion (aconitin arrhythmia; 0.25 mg/kg i.v.): 11.3 ± 0.88 min; time to fibrillation, aconitin infusion (aconitin arrhythmia; 0.25 mg/kg i.v.): 15.9 ± 0.49 min; LD50 at 168 h [1]: 1.96 mg/kg
Cc1cccc(C)c1NC(=O)CNC(=O)C1=CC(C)(C)NC1(C)C [Compound 19] | 1.53 mg/kg | 2.44 mg/kg | 53 mg/kg | – | – | – | 6.6 min | 10.4 ± 2.58 min | 15.1 ± 0.70 min | – | – | – | 9.8 ± 0.34 min | 16.1 ± 2.62 min | 17.4 ± 1.22 min | time to chamber extrasystol, aconitin infusion (aconitin arrhythmia; 8.0 mg/kg i.v.): 13.8 ± 0.35 min; time to chamber tachycardia, aconitin infusion (aconitin arrhythmia; 8.0 mg/kg i.v.): 27.0 ± 1.10 min; time to fibrillation, aconitin infusion (aconitin arrhythmia; 8.0 mg/kg i.v.): 30.6 ± 1.72 min
Cc1cccc(C)c1NC(=O)C(C)NC(=O)C1=CC(C)(C)NC1(C)C (stereo not shown) [Compound 20] | 1.21 mg/kg | 1.91 mg/kg | 15 mg/kg | – | – | – | 7.1 ± 0.49 min | 12.3 ± 0.42 min | 15.5 ± 0.59 min | 9.2 ± 0.65 min | 15.1 ± 0.22 min | 19.5 ± 0.54 min | 11.7 ± 0.50 min | 18.4 ± 0.75 min | 23.5 ± 1.63 min | –
C=CC1CN2CCC1CC2C(O)c1ccnc2ccc(OC)cc12 (stereo not shown) [chinidin, reference compound] | 6.75 mg/kg | – | – | – | – | – | – | – | – | – | – | – | – | – | – | time to chamber extrasystol, aconitin infusion (aconitin arrhythmia; 5.0 mg/kg i.v.): 6.9 ± 0.06 min; time to chamber tachycardia, aconitin infusion (aconitin arrhythmia; 5.0 mg/kg i.v.): 10.4 ± 0.45 min; time to fibrillation, aconitin infusion (aconitin arrhythmia; 5.0 mg/kg i.v.): 13.7 ± 0.44 min; time to chamber extrasystol, aconitin infusion (aconitin arrhythmia; 10.0 mg/kg i.v.): 8.4 ± 0.42 min; time to chamber tachycardia, aconitin infusion (aconitin arrhythmia; 20.0 mg/kg i.v.): 15.7 ± 0.48 min; time to fibrillation, aconitin infusion (aconitin arrhythmia; 20.0 mg/kg i.v.): 18.1 ± 0.22 min

Reference: US4731376A, “2-(-(2,2,5,5-tetramethyl-3-pyrrolin-3-carbonyl))-amino derivatives” (Alkaloida Vegyeszeti Gyar, priority 1983, dated 1988)
